From ChEMBL document CHEMBL3045389, “Synthesis and insect antifeedant activity of plumbagin derivatives” (2012)

Legend:
Spodoptera litura = test: Antifeedant activity against prestarved healthy third-instar larval stage of Spodoptera litura assessed as area of leaf consumed after 6 hr by conventional no-choice leaf-disk bioassay; assay type: functional
Achaea janata = test: Antifeedant activity against prestarved healthy third-instar larval stage of Achaea janata assessed as area of leaf consumed after 6 hr by conventional no-choice leaf-disk bioassay; assay type: functional

SMILES | ED50 (Spodoptera litura) [microg/cm2] | ED50 (Achaea janata) [microg/cm2]
CCCCCCCCCCCCNC1=C(C)C(=O)c2cccc(OC)c2C1=O | >500 | 59.62
CCCCCCCCCCCCCCCCNC1=C(C)C(=O)c2cccc(OC)c2C1=O | 16.77 | 64.23
CCCCCCCC/C=C/CCCCCCCCNC1=C(C)C(=O)c2cccc(OC)c2C1=O | 180.36 | 26.49
C=CCNC1=C(C)C(=O)c2cccc(OC)c2C1=O | 31.22 | 13.51
COc1cccc2c1C(=O)C(NCc1ccccc1)=C(C)C2=O | >500 | >500
COc1cccc2c1C(=O)C(NCc1ccc(F)cc1)=C(C)C2=O | 302.32 | 51.091
COc1ccc(CNC2=C(C)C(=O)c3cccc(OC)c3C2=O)cc1 | >500 | >500
COc1cccc2c1C(=O)C(NCc1ccc(C(F)(F)F)cc1)=C(C)C2=O | >500 | 21.82
CCNC1=C(C)C(=O)c2cccc(OC)c2C1=O | >500 | 24.41
CCCNC1=C(C)C(=O)c2cccc(OC)c2C1=O | >500 | >500
CCCCNC1=C(C)C(=O)c2cccc(OC)c2C1=O | 64.08 | >500
CCCCCCNC1=C(C)C(=O)c2cccc(OC)c2C1=O | 278.34 | 73.31
CCCCCCCCNC1=C(C)C(=O)c2cccc(OC)c2C1=O | >500 | 44.76
CCCCCCCCCNC1=C(C)C(=O)c2cccc(OC)c2C1=O | 32.5 | 24.04
CCCCCCCCCCNC1=C(C)C(=O)c2cccc(OC)c2C1=O | 31.109 | 30.25
C/C=C(\C)C(=O)O[C@H]1C[C@@H](OC(C)=O)[C@@]2(C(=O)OC)CO[C@H]3[C@@H](O)[C@@](C)([C@]45O[C@@]4(C)[C@@H]4C[C@H]5O[C@@H]5OC=C[C@@]54O)[C@H]4[C@]1(CO[C@]4(O)C(=O)OC)[C@@H]32 [AZADIRACHTIN A] | 0.89 | 0.72
CC1=CC(=O)c2c(O)cccc2C1=O [PLUMBAGIN] | 43.71 | 23.97
